Test results: ChEMBL document CHEMBL1201862, “PubChem BioAssay data set” (2004)
Activity calls are given as the source filed them.

Assays:
[1] = Counterscreen for antagonists of the orexin 1 receptor (OX1R; HCRTR1): Fluorescence-based cell-based high throughput dose response assay to identify antagonists of the parental CHO cell line. [Related pubchem assays (depositor defined):AID434989, AID435008, AID463079, AID485270, AID492963, AID492964, AID492965, AID493232, AID504699, AID504701]; assay type: functional
[2] = target: T1, Replicative DNA helicase DnaB (Mycobacterium tuberculosis, UniProt P9WMR3); test: DnaB intein splicing inhibitors, dose response, biochemical, cell-free fluorescence (AID 449749); assay type: functional
T1 sequence (P9WMR3 whole entry): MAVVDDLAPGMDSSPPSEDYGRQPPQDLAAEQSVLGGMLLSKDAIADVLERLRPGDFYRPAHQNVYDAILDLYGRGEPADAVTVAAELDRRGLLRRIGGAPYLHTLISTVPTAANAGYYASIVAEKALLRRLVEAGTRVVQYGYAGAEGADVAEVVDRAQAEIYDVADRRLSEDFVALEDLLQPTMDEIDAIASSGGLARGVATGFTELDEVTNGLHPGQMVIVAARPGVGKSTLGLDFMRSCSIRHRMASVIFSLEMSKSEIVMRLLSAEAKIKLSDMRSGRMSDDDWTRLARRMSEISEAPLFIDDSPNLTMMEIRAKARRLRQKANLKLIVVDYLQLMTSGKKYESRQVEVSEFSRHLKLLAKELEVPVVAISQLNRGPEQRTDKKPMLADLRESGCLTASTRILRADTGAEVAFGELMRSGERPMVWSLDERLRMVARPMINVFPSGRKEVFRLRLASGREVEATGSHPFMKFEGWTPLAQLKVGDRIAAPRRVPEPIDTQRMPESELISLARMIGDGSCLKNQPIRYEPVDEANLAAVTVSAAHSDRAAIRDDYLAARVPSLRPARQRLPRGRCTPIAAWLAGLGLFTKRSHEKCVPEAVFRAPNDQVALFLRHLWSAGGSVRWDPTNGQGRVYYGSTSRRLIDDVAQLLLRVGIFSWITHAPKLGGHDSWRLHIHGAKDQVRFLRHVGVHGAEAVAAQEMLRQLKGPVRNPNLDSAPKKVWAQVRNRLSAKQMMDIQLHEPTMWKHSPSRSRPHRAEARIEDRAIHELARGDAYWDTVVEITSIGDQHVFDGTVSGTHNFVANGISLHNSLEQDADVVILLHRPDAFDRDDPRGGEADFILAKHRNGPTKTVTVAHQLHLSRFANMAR

[3] = Fluorescence-based cell-based high throughput dose response assay for inhibitors of the interaction of nucleotide-binding oligomerization domain containing 2 (NOD2) and the receptor-interacting serine-threonine kinase 2 (RIPK2).; assay type: functional; conditions: Homo sapiens
[4] = general mammalian cell viability loss – activator set, cherry-pick, cytotoxicity control for miR-122 modulator project, dose response (AID 720690); assay type: functional, cell-based;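 further: HEK293T human cells scored for general mammalian cytotoxicity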
[5] = target: T2, 1-phosphatidylinositol 4,5-bisphosphate phosphodiesterase beta-3 (Homo sapiens, UniProt Q01970); test: Fluorescence-based biochemical high throughput dose response assay to identify inhibitors of phospholipase C isozymes (PLC-B3).
T2 sequence (Q01970 whole entry): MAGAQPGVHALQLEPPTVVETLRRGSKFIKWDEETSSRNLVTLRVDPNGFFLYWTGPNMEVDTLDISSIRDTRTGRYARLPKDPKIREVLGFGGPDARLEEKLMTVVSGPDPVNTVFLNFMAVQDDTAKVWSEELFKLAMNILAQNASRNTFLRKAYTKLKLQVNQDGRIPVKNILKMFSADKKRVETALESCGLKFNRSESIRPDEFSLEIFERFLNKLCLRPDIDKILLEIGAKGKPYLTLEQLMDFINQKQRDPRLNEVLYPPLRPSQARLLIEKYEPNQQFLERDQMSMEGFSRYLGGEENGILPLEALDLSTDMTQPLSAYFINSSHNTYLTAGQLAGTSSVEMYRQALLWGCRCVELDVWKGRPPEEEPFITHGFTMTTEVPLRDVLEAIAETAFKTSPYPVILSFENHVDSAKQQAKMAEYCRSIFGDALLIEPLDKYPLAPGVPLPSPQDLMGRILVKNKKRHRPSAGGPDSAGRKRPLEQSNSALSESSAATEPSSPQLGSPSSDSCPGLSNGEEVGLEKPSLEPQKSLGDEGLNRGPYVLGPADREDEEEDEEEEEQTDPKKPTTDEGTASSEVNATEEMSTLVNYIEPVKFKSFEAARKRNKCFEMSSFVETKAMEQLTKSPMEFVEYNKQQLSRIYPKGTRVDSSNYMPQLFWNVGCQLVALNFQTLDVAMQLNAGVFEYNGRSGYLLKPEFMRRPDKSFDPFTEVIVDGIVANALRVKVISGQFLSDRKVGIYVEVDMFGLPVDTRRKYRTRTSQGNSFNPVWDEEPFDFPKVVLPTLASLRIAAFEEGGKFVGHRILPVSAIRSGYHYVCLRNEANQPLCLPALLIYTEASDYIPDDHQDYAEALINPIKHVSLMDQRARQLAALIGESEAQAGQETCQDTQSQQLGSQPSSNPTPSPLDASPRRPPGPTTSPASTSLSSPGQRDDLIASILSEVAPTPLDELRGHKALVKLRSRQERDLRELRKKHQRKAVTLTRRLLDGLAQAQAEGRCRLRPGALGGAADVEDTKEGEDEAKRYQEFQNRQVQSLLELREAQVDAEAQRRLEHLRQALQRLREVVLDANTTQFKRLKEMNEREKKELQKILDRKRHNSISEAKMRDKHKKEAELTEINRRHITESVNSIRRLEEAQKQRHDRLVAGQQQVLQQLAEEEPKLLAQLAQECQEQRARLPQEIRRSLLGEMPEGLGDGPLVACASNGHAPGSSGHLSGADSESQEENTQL

[6] = target: T3, Serine/threonine-protein phosphatase (Candida dubliniensis (strain CD36 / CBS 7987 / NCPF 3949 / NRRLY-17841) (Yeast), UniProt B9W6M3); test: blockers of CaCl2-induced CDRE-lacZ signaling – S. cerevisiae, luminescence, secondary, dose response (AID 2388); assay type: functional, cell-based;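 further: yeast reporter cells carrying a calcineurin-responsive lacZ construct stimulated with calcium chloride; luminescent beta-galactosidase reporter signal in whole cells rather than isolated phosphatase activity; potency for inhibition where a drop in reporter signal means calcineurin blockade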
T3 sequence (B9W6M3 whole entry): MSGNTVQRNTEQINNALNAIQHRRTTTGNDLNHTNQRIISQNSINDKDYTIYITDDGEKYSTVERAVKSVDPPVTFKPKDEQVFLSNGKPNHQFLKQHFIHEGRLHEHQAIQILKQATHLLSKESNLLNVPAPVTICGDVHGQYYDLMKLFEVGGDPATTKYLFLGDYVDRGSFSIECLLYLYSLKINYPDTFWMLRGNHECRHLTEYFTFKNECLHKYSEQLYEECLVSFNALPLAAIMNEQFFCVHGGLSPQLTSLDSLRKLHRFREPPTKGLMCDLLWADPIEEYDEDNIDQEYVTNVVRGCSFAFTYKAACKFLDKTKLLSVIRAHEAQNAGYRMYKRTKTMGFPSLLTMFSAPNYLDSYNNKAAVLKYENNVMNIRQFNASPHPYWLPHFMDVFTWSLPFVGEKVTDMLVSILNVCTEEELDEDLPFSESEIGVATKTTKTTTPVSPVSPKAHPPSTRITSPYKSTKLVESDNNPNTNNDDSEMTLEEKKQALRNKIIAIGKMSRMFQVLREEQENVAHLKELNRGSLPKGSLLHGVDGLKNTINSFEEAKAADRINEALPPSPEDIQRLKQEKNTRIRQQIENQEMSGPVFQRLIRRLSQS

In the case of `Cc1ccc(C(=O)OCn2ncc(Cl)c(Cl)c2=O)cc1`, the IC50 [1] is reported as > 49.7 µM (inactive), the AC50 [2] is reported as 3.66 µM (active) and the IC50 [3] is reported as 0.889 µM (active). For the same compound, the AC50 [4] was 4.47 µM (active).
In the case of `O=C(O)CC(C(=O)O)N1C(=O)/C(=C/C=C/c2ccco2)SC1=S` (stereo unspecified), the IC50 [5] is reported as > 122 µM (inactive).
With `CCCC(=O)NC(c1cccs1)c1cc(Cl)c2cccnc2c1O` (stereo unspecified) the EC50 [6] was > 180 µM (inactive).
